Reference: patent US4230698A, “2-Substituted arabinofuranosyl nucleosides and nucleotides” (Research Corporation, priority 1978, dated 1980)

Columns and labels:
CR-CdR deaminase = experiment: in vitro
Description: (§1) Partially purified CR-CdR deaminase is prepared from two different sources: (1) human liver, following the procedure of Wentworth and Wolfender, Biochemistry, vol. 14, p. 5099 (1975), and (2) blast cells of patients with acute myelocytic leukemia, using ammonium sulfate fractionation and DEAE column chromatography. The assay procedure is described by Wentworth and Wolfander, ibid.

[1] = test system: Herpes Simplex type II virus; experiment: In vitro antiviral testing, plaque reduction, Herpes Simplex type II; type: cell-based; details: for antiviral properties: plaque reduction
Source text: (§2) Cytarazid and cytaramin, when tested in vitro against Herpes Simplex types I and II viruses, utilizing the plaque reduction technique described by Dulbecco, Proceedings National Academy of Sciences, vol. 38, p.

L-1210 leukemic cells = experiment: In vivo cytotoxicity testing, survival of mice inoculated with L-1210 leukemic cells; design: species or system DBA/2 HaDD mice; details: control 8.7 days
Description: Cytarazid and cytaramin are evaluated in vivo for growth inhibitory potency against leukemic cells by intraperitoneally inoculating DBA/2 HaDD mice with an IP-PBS saline suspension of 1×10^6 L-1210 leukemic cells, waiting 24 hrs., and then administering the test compound intraperitoneally in 0.2 ml. of saline-phospate buffer solution (pH 7.0).

[2] = test system: Herpes Simplex type I virus; experiment: In vitro antiviral testing, plaque reduction, Herpes Simplex type I; type: cell-based; details: for antiviral properties: plaque reduction
Source text: as §2

HeLa = experiment: In vitro cytotoxicity testing (growth inhibition, Trypan Blue exclusion), HeLa; type: cell-based; details: Homo sapiens, 40 hr, 37 degrees C, read-out: Concentration for 50% Inhibition of Growth
Description: (§3) Cytarazid, the β-anomer of the nucleoside prepared in Example 3 herein, and cytaramin, the nucleoside prepared in Example 4 herein, are evaluated in vitro for growth inhibiting potency against mammalian cancer cells by a micro technique, using the culture conditions described by Bobek et al. in J. Med. Chem., vol. 20, p. 458 (1977), whereby 0.5 ml. aliquots of medium (RPMI 1640.div.10% fetal calf serum) containing the test compound are introduced into 16×125 mm. screw cap culture tubes, followed by 0.5 ml. portions of the medium containing 1×10^5 mammalian cancer cells. The cultures are incubated at 37 degrees C. for 40 hr., after which time the viable cells are counted by Trypan Blue exclusion. During this time the cell number in the controls increases about four to nine-fold with an average cell viability of 99%. The test results are as follows:
(§4) Concentration for 50% Inhibition of Growth
(§5) Cell Line Cytarazid Cytaramin

L-1210 = experiment: In vitro cytotoxicity testing (growth inhibition, Trypan Blue exclusion), L-1210; type: cell-based; details: Mus musculus, L1210, 40 hr, 37 degrees C, read-out: Concentration for 50% Inhibition of Growth
Description: as §3, §4, §5

[3] = test system: Molt 4F (T-type from lymphoblastic leukemia); experiment: In vitro cytotoxicity testing (growth inhibition, Trypan Blue exclusion), Molt 4F; type: cell-based; details: Homo sapiens, 40 hr, 37 degrees C, read-out: Concentration for 50% Inhibition of Growth
Description: as §3, §4, §5

in vitro = details: human, cr-cdr deaminase
Description: as §1

[4] = 50 μM, read-out: inhibition of the virus (log)

| half-life (in vitro) [min] | SMILES | deamination detected in 8 hrs (CR-CdR deaminase) | antiviral properties [1] | Survival Time (L-1210 leukemic cells; 75 mg/kg IP twice per day 8 hrs apart for 2 days beginning 24 hrs after tumor inoculation) [days] | antiviral properties [2] | IC50 (HeLa) [nM] | IC50 (L-1210) [nM] | inhibition at 50 µM ([1]; 50 μM) [%] | log reduction at 50 µM [1, 4] | Survival Time (L-1210 leukemic cells; 40 mg/kg IP twice per day 8 hrs apart for 2 days beginning 24 hrs after tumor inoculation) [days] | inhibition at 50 µM ([2]; 50 μM) [%] | log reduction at 50 µM [2, 4] | IC50 [3] [nM] |
| --- | --- | --- | --- | --- | --- | --- | --- | --- | --- | --- | --- | --- | --- |
|  | Nc1ccn([C@@H]2O[C@H](CO)[C@@H](O)[C@@H]2N)c(=O)n1 [Cytaramin, 1-(2-amino-2-deoxy-β-D-arabinofuranosyl) cytosine] | no significant deamination | significant antiviral properties | > 120 | significant antiviral properties | 30000 | 4000 |  |  |  |  |  |  |
|  | [N-]=[N+]=N[C@H]1[C@H](O)[C@@H](CO)O[C@H]1n1ccc(N)nc1=O [Cytarazid, 1-(2-azido-2-deoxy-β-D-arabinofuranosyl) cytosine] | no significant deamination | significant antiviral properties |  | significant antiviral properties | 200 | 600 | > 99 | > 2 | > 120 | > 99.9 | > 3 | 70 |
| 45 | Nc1ccn([C@@H]2O[C@H](CO)[C@@H](O)[C@@H]2O)c(=O)n1 [cytarabine, reference compound] |  |  |  |  |  |  |  |  |  |  |  |  |
